Source: patent publication US11963972B2, “Antiviral agents and nucleoside analogs for treatment of Zika virus” (priority 2016, dated 2024)
pEC50: −log10 of the molar value. Read-outs that look alike come from different tables or passages of the source. Each block holds one molecule with its values, some of them ahead of it.

Legend:
[1] = tested on: ZIKV Puerto Rico strain (PRVABC59); assay: ZIKV CPE MTS assay in Vero cells; type: cell-based, Zika virus; details: Vero cells
Procedure: (§1) […] Cell cytopathic effect (CPE) MTS assay (CellTiter 96@k) AQueous One Solution Cell Proliferation Promega kit, Promega) was measured four (Vero) or five (U251 or Huh7) days after compound addition to determine the levels of replication inhibition.

[2] = tested on: ZIKV Puerto Rico strain (PRVABC59); assay: ZIKV CPE MTS assay in Huh7 cells; type: cell-based, Zika virus; details: Huh7 cells
Procedure: as §1

[3] = tested on: ZIKV Puerto Rico strain (PRVABC59); assay: ZIKV CPE MTS assay in human neuroblastoma (U251) cells; type: cell-based, Zika virus; details: U251 cells
Procedure: as §1

ZIKV PRVABC59 = assay: Combination of SSZ with control 1, ZIKV CPE assay in Vero cells; type: cell-based, Zika virus; details: Vero cells pretreated 18-20 h, MOI 0.01 PRVABC59, read-out: EC50, drug alone, ZIKV CPE assay
Procedure: Vero cells were pretreated for 18-20 h with SSZ (fixed concentrations of 300, 200 or 100 μM) plus control 1 (10, 5, 2.5 and 0.25 μM) prior to infection with MOI 0.01 PRVABC59 (drugs were replenished right after infection).
Drug-drug interactions were analyzed by using CalcuSyn (Biosoft, Ferguson, MO) computer software: 300, 200, and 100 μM SSZ in the presence of 10, 5, 2.5, and 0.25 μM of control 1 was evaluated versus each drug alone for each drug concentration. The interpretation of Combination Index (CI) values are as follows: Antagonism: CI value>1.0, Additive effect: CI value=1.0; Synergism: CI value=<1.0.

DENV-2 replicon = DENV-2 replicon model; type: cell-based; details: Dengue virus, DENV2
DENV-2 [4] = assay: DENV-2 Huh-7 infectious assay; type: cell-based; details: Dengue virus, DENV2, Huh-7
DENV-2 [5] = assay: DENV-2 VERO infectious assay; type: cell-based, Dengue virus
WNV replicon = WNV replicon model; type: cell-based; details: West Nile virus
Norovirus = Norovirus activity test; type: cell-based
HCV = HCV activity test; type: cell-based
[6] = tested on: baby hamster kidney (BHK) cells
[7] = human, in vivo; cited from earlier work

EC50 ([1]; no pretreat, read-out: ZIKV-CPE MTS Assay EC50, μM, Vero, No pretreat): 0.8 µM
EC50 ([1]; pretreated 18-20 h before infection, read-out: ZIKV-CPE MTS Assay EC50, μM, Vero, Pretreat): 0.4 µM
EC50 ([2]; no pretreat, read-out: ZIKV-CPE MTS Assay EC50, μM, Huh7, No pretreat): 0.4 µM
EC50 ([2]; pretreated 18-20 h before infection, read-out: ZIKV-CPE MTS Assay EC50, μM, Huh7, Pretreat): 0.5 µM
EC50 ([3]; no pretreat, read-out: ZIKV-CPE MTS Assay EC50, μM, U251, No pretreat): 3.5 µM
EC50 ([3]; pretreated 18-20 h before infection, read-out: ZIKV-CPE MTS Assay EC50, μM, U251, Pretreat): 4 µM
pEC50 (ZIKV PRVABC59): 5.27
Compound: C[C@@]1(O)[C@H](O)[C@@H](CO)O[C@H]1n1cc(F)c2cnc(N)nc21 [Control 1, beta-D-2′-C—Me-2-amino-7-fluoro-7-deazapurine ribose, reference compound]

Compound: O=C(O)c1cc(/N=N/c2ccc(S(=O)(=O)Nc3ccccn3)cc2)ccc1O [Sulfasalazine]
EC50 ([1]; Zika virus, no pretreat, read-out: ZIKV-CPE MTS Assay EC50, μM, Vero, No pretreat): 181 µM
EC50 ([1]; Zika virus, pretreated 18-20 h before infection, read-out: ZIKV-CPE MTS Assay EC50, μM, Vero, Pretreat): 273 µM
EC50 ([2]; Zika virus, Huh-7, no pretreat, read-out: ZIKV-CPE MTS Assay EC50, μM, Huh7, No pretreat): 255 µM
EC50 ([2]; Zika virus, Huh-7, pretreated 18-20 h before infection, read-out: ZIKV-CPE MTS Assay EC50, μM, Huh7, Pretreat): 341 µM
EC50 ([3]; Zika virus, U-251, no pretreat, read-out: ZIKV-CPE MTS Assay EC50, μM, U251, No pretreat): 385 µM
EC50 ([3]; Zika virus, U-251, pretreated 18-20 h before infection, read-out: ZIKV-CPE MTS Assay EC50, μM, U251, Pretreat): 318 µM
pEC50 (DENV-2 replicon): 5.08
inhibition at 30 µM (DENV-2 replicon; at 30 μM): 77.4%
pEC50 (DENV-2 [4]): 4.65
EC90 (DENV-2 [4]): 61.9 µM
pEC50 (DENV-2 [5]; Dengue virus, DENV2, Vero): < 4.00
% inhibition, DENV-2 in Vero cells (DENV-2 [5]; Vero, concentration not given): < 1%
pEC50 (WNV replicon): 5.00
EC90 (WNV replicon): 78.3 µM
inhibition at 30 µM (WNV replicon; at 30 μM): 78.5%
effect on Norovirus (no effect observed up to) (Norovirus): > 100 µM
effect on HCV (no effect observed up to) (HCV): > 100 µM
pEC50 (ZIKV PRVABC59; Zika virus): 3.68
Toxicity in baby hamster kidney (BHK) cells [6]: > 100 µM
toxicity in culture (no toxicity up to) [6]: > 100 µM
doses taken without side effects [7]: up to 4 g/day
safety in pregnancy [7]: safe for a person to take while pregnant
